In PubChem BioAssay (NCI):
Where “and” joins values, the source holds several entries; their conditions need not be identical. Identical values can stand only once.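 Test compounds were applied to cells in 96-well plates for 48 hours at 5 doses. Here, GI50 denotes the concentration required for 50% inhibition of growth. TGI: concentration producing complete growth inhibition.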

Legend:
Assay in all cases: inhibition of tumour cell growth, NCI panel, 48 h
EKVX NSCLC = system: EKVX NSCLC
ACHN renal = system: ACHN renal
UACC-62 melanoma = system: UACC-62 melanoma
OVCAR-8 ovarian = system: OVCAR-8 ovarian
MDA-MB-231 breast = system: MDA-MB-231 breast
SK-MEL-28 melanoma = system: SK-MEL-28 melanoma
UACC-257 melanoma = system: UACC-257 melanoma
HCT-15 colon = system: HCT-15 colon
SNB-78 CNS = system: SNB-78 CNS
LXFL 529 NSCLC = system: LXFL 529 NSCLC

O=C(c1ccc(Cl)cc1Cl)N1CCN(C(=O)c2ccc(Cl)cc2Cl)C1=S
GI50 (EKVX NSCLC): 20.5 µM
TGI (EKVX NSCLC): 48.4 µM
GI50 (ACHN renal): 21.3 µM
TGI (ACHN renal): 45.7 µM
GI50 (UACC-62 melanoma): 17.3 µM
TGI (UACC-62 melanoma): 31.6 µM
GI50 (OVCAR-8 ovarian): 22.1 µM
TGI (OVCAR-8 ovarian): 48.5 µM
GI50 (MDA-MB-231 breast): 19.1 µM
TGI (MDA-MB-231 breast): 38.7 µM
GI50 (SK-MEL-28 melanoma): 18.4 µM
TGI (SK-MEL-28 melanoma): 39.4 µM
GI50 (UACC-257 melanoma): 28.2 µM
TGI (UACC-257 melanoma): 63.4 µM
GI50 (HCT-15 colon): 22.1 µM
TGI (HCT-15 colon): 57.3 µM

CCCC(=O)Oc1ccc(/C(=C(\C)c2ccc(Cl)cc2)c2ccc(OCCN(CC)CC)cc2)cc1
GI50 (EKVX NSCLC): 7.2 µM
TGI (EKVX NSCLC): 21 µM
GI50 (ACHN renal): 3.39 µM
TGI (ACHN renal): 11.9 µM
GI50 (UACC-62 melanoma): 2.06 µM
TGI (UACC-62 melanoma): 4.04 µM
GI50 (OVCAR-8 ovarian): 3.43 µM
TGI (OVCAR-8 ovarian): 11.9 µM
GI50 (MDA-MB-231 breast): 2.42 µM
TGI (MDA-MB-231 breast): 5.13 µM
GI50 (SK-MEL-28 melanoma): 1.91 µM
TGI (SK-MEL-28 melanoma): 3.91 µM
GI50 (UACC-257 melanoma): 2.02 µM
TGI (UACC-257 melanoma): 4.18 µM
GI50 (HCT-15 colon): 1.68 µM
TGI (HCT-15 colon): 3.73 µM

CC(C)(C)OC(=O)NCCCCCCCCCn1c2c(c3ccccc3c1=O)C(=O)c1ccccc1-2
GI50 (EKVX NSCLC): 49.2 µM
TGI (EKVX NSCLC): > 100 µM
GI50 (ACHN renal): 27 µM
TGI (ACHN renal): > 100 µM
GI50 (UACC-62 melanoma): 17.3 µM
TGI (UACC-62 melanoma): 40.7 µM
GI50 (OVCAR-8 ovarian): 56.1 µM
TGI (OVCAR-8 ovarian): > 100 µM
GI50 (MDA-MB-231 breast): 31.7 µM
TGI (MDA-MB-231 breast): > 100 µM
GI50 (SK-MEL-28 melanoma): > 100 µM
TGI (SK-MEL-28 melanoma): > 100 µM
GI50 (UACC-257 melanoma): > 100 µM
TGI (UACC-257 melanoma): > 100 µM
GI50 (HCT-15 colon): > 100 µM
TGI (HCT-15 colon): > 100 µM

COc1cc(C[C@H]2COC(=O)[C@]2(O)Cc2ccc(OCc3ccccc3)c(OC)c2)ccc1OCc1ccccc1
GI50 (EKVX NSCLC): 24.2 µM
TGI (EKVX NSCLC): > 100 µM
GI50 (ACHN renal): 26.1 µM
TGI (ACHN renal): > 100 µM
GI50 (UACC-62 melanoma): 40.5 µM
TGI (UACC-62 melanoma): > 100 µM
GI50 (OVCAR-8 ovarian): 12.3 µM
TGI (OVCAR-8 ovarian): > 100 µM
GI50 (MDA-MB-231 breast): > 100 µM
TGI (MDA-MB-231 breast): > 100 µM
GI50 (SK-MEL-28 melanoma): > 100 µM
TGI (SK-MEL-28 melanoma): > 100 µM
GI50 (UACC-257 melanoma): 16 µM
TGI (UACC-257 melanoma): > 100 µM
GI50 (HCT-15 colon): 19 µM
TGI (HCT-15 colon): > 100 µM

COc1ccc(C2=Nn3c(nnc3-c3ccc(F)c(Cl)c3)SC2)cc1
GI50 (EKVX NSCLC): > 100 µM
TGI (EKVX NSCLC): > 100 µM
GI50 (ACHN renal): > 100 µM
TGI (ACHN renal): > 100 µM
GI50 (UACC-62 melanoma): > 100 µM
TGI (UACC-62 melanoma): > 100 µM
GI50 (OVCAR-8 ovarian): > 100 µM
TGI (OVCAR-8 ovarian): > 100 µM
GI50 (MDA-MB-231 breast): 29.5 µM
TGI (MDA-MB-231 breast): > 100 µM
GI50 (SK-MEL-28 melanoma): > 100 µM
TGI (SK-MEL-28 melanoma): > 100 µM
GI50 (UACC-257 melanoma): > 100 µM
TGI (UACC-257 melanoma): > 100 µM
GI50 (HCT-15 colon): > 100 µM
TGI (HCT-15 colon): > 100 µM

CCc1nc(N)nc(N)c1C#CC(C)c1ccc(-c2ccncc2)cc1Cl (centres undefined)
GI50 (EKVX NSCLC): 0.0259 µM and 0.0772 µM
TGI (EKVX NSCLC): 2.5 µM and 12.6 µM
GI50 (ACHN renal): 0.00775 µM and 0.0304 µM
TGI (ACHN renal): 4.57 µM and 13.7 µM
GI50 (UACC-62 melanoma): < 0.005 µM and 0.0186 µM
TGI (UACC-62 melanoma): 4.39 µM and 10.9 µM
GI50 (OVCAR-8 ovarian): < 0.005 µM and 0.0299 µM
TGI (OVCAR-8 ovarian): 7.66 µM and 37.7 µM
GI50 (MDA-MB-231 breast): 0.555 µM and 0.511 µM
TGI (MDA-MB-231 breast): 7.11 µM and 19.8 µM
GI50 (SK-MEL-28 melanoma): 0.0645 µM and 0.375 µM
TGI (SK-MEL-28 melanoma): 4.52 µM and 17 µM
GI50 (UACC-257 melanoma): 0.0286 µM and 0.0348 µM
TGI (UACC-257 melanoma): 2.34 µM and 12.1 µM
GI50 (HCT-15 colon): < 0.005 µM and 0.0127 µM
TGI (HCT-15 colon): 5.24 µM and 11.9 µM

O=C(c1ccccc1)c1nc2c(Cl)ccc(Cl)c2cc1C(Br)Br
TGI (SNB-78 CNS): 5.94 µM
TGI (ACHN renal): 1.52 µM
TGI (UACC-62 melanoma): 3.01 µM
TGI (OVCAR-8 ovarian): 7.59 µM
TGI (SK-MEL-28 melanoma): 0.637 µM
TGI (LXFL 529 NSCLC): 1.55 µM
TGI (UACC-257 melanoma): 1.54 µM
TGI (HCT-15 colon): 2.88 µM

NCC(=O)Nc1ccc(Cl)cc1C(=O)c1ccc[nH]1
TGI (EKVX NSCLC): > 100 µM
TGI (ACHN renal): > 100 µM
TGI (UACC-62 melanoma): > 100 µM
TGI (OVCAR-8 ovarian): > 100 µM
TGI (MDA-MB-231 breast): > 100 µM
TGI (SK-MEL-28 melanoma): > 100 µM
TGI (UACC-257 melanoma): > 100 µM
TGI (HCT-15 colon): > 100 µM

CC(C)(C)C1=CC(=N/N=c2\scc(-c3ccccc3)n2Cc2ccccc2)C=C(C(C)(C)C)C1=O
TGI (EKVX NSCLC): > 100 µM
TGI (ACHN renal): > 100 µM
TGI (UACC-62 melanoma): > 100 µM
TGI (OVCAR-8 ovarian): > 100 µM
TGI (SK-MEL-28 melanoma): > 100 µM
TGI (LXFL 529 NSCLC): > 100 µM
TGI (UACC-257 melanoma): > 100 µM
TGI (HCT-15 colon): > 100 µM

N[C@H]1CCC[C@@H](O)C1O (some centres undefined)
TGI (EKVX NSCLC): > 100 µM
TGI (ACHN renal): > 100 µM
TGI (UACC-62 melanoma): > 100 µM
TGI (OVCAR-8 ovarian): > 100 µM
TGI (MDA-MB-231 breast): > 100 µM
TGI (SK-MEL-28 melanoma): > 100 µM
TGI (UACC-257 melanoma): > 100 µM
TGI (HCT-15 colon): > 100 µM

O=C(NCCCN1CCN(CCCNC(=O)c2cccc3ccccc23)CC1)c1cccc2ccccc12
TGI (SNB-78 CNS): > 100 µM
TGI (EKVX NSCLC): > 100 µM
TGI (ACHN renal): > 100 µM
TGI (UACC-62 melanoma): > 100 µM
TGI (OVCAR-8 ovarian): > 100 µM
TGI (LXFL 529 NSCLC): > 100 µM
TGI (UACC-257 melanoma): > 100 µM
TGI (HCT-15 colon): > 100 µM

O=C(Nc1cc(Cl)c(I)c(Cl)c1)C(F)(F)F
TGI (EKVX NSCLC): > 100 µM
TGI (ACHN renal): > 100 µM
TGI (UACC-62 melanoma): 48.9 µM
TGI (OVCAR-8 ovarian): 56.8 µM
TGI (MDA-MB-231 breast): > 100 µM
TGI (SK-MEL-28 melanoma): 74 µM
TGI (UACC-257 melanoma): > 100 µM
TGI (HCT-15 colon): 45.9 µM

COC(=O)CNC(=O)C(=O)c1c(O)c(O)c(C(C)C)c2cc(C)c(-c3c(C)cc4c(C(C)C)c(O)c(O)c(C(=O)C(=O)NCC(=O)OC)c4c3O)c(O)c12
GI50 (EKVX NSCLC): 1.2 µM
TGI (EKVX NSCLC): 4.99 µM
GI50 (ACHN renal): 1.42 µM
TGI (ACHN renal): 5.54 µM
GI50 (UACC-62 melanoma): 2.23 µM
TGI (UACC-62 melanoma): 9.48 µM
GI50 (OVCAR-8 ovarian): 2.05 µM
TGI (OVCAR-8 ovarian): 8.4 µM
GI50 (MDA-MB-231 breast): 1.99 µM
TGI (MDA-MB-231 breast): 9.64 µM
GI50 (SK-MEL-28 melanoma): 2 µM
TGI (SK-MEL-28 melanoma): 8.61 µM
GI50 (UACC-257 melanoma): 7.89 µM
TGI (UACC-257 melanoma): 20.9 µM
GI50 (HCT-15 colon): 1.49 µM
TGI (HCT-15 colon): 5.63 µM

CNC(=O)[C@H](Cc1c[nH]c2ccccc12)NC(=O)[C@@H](CC(=O)NO)CC(C)C
GI50 (EKVX NSCLC): > 25 µM
TGI (EKVX NSCLC): > 25 µM
GI50 (ACHN renal): > 25 µM
TGI (ACHN renal): > 25 µM
GI50 (UACC-62 melanoma): > 25 µM
TGI (UACC-62 melanoma): > 25 µM
GI50 (OVCAR-8 ovarian): > 25 µM
TGI (OVCAR-8 ovarian): > 25 µM
GI50 (MDA-MB-231 breast): > 25 µM
TGI (MDA-MB-231 breast): > 25 µM
GI50 (SK-MEL-28 melanoma): > 25 µM
TGI (SK-MEL-28 melanoma): > 25 µM
GI50 (UACC-257 melanoma): > 25 µM
TGI (UACC-257 melanoma): > 25 µM
GI50 (HCT-15 colon): > 25 µM
TGI (HCT-15 colon): > 25 µM

O=c1[nH]c2nc3ccccc3c(=O)n2nc1Cc1ccccc1
TGI (SNB-78 CNS): > 100 µM
TGI (EKVX NSCLC): > 100 µM
TGI (ACHN renal): > 100 µM
TGI (UACC-62 melanoma): > 100 µM
TGI (OVCAR-8 ovarian): > 100 µM
TGI (SK-MEL-28 melanoma): > 100 µM
TGI (LXFL 529 NSCLC): > 100 µM
TGI (UACC-257 melanoma): > 100 µM
TGI (HCT-15 colon): > 100 µM

COc1ccc(-c2cn(C)c3c2-n2cccc2C3=O)cc1O
GI50 (EKVX NSCLC): 14.6 µM
TGI (EKVX NSCLC): 51.5 µM
GI50 (ACHN renal): 5.05 µM
TGI (ACHN renal): 22.5 µM
GI50 (UACC-62 melanoma): 3.27 µM
TGI (UACC-62 melanoma): 12.2 µM
GI50 (OVCAR-8 ovarian): 19.7 µM
TGI (OVCAR-8 ovarian): > 100 µM
GI50 (MDA-MB-231 breast): 3.65 µM
TGI (MDA-MB-231 breast): 29.8 µM
GI50 (SK-MEL-28 melanoma): 11.4 µM
TGI (SK-MEL-28 melanoma): 33.8 µM
GI50 (UACC-257 melanoma): 15.9 µM
TGI (UACC-257 melanoma): 32.9 µM
GI50 (HCT-15 colon): 1.86 µM
TGI (HCT-15 colon): 9.15 µM

C=C1C(=O)OC2CC1C(OC(=O)/C=C/c1ccccc1)C/C(C)=C/CC/C(C)=C/CCC2(C)O (centres undefined)
TGI (EKVX NSCLC): 3.66 µM
TGI (ACHN renal): 3.08 µM
TGI (UACC-62 melanoma): 4.51 µM
TGI (OVCAR-8 ovarian): 6.99 µM
TGI (MDA-MB-231 breast): 5.39 µM
TGI (SK-MEL-28 melanoma): 15.6 µM
TGI (UACC-257 melanoma): 3.79 µM
TGI (HCT-15 colon): 2.67 µM
